Test results as given in patent publication US20250144051A1, “Colchicine for Treating Connective Tissue Disorders” (Khan Sciences, Inc., priority 2023, published 2025).

Key:
TGF-β1 = experiment: In vitro tendinopathy model, TGF-β1 in tenocyte supernatant (MSD multiplex); type: cell-based, human
Experimental: (§1) In Vitro Tendinopathy Model: The below experiment was conducted on an in vitro tendinopathy model. Cells derived from human tendons (tenocytes) can serve as an in vitro model of tendons. See Miller et al., “MicroRNA29a regulates IL-33-mediated tissue remodelling in tendon disease.” Nat Commun 6, 6774 (2015). Cultured tenocytes can be used to investigate the effects of pro-inflammatory cytokines upon the most basic elements of tendon structure. See Ellis et al., “Defining the profile: Characterizing cytokines in tendon injury to improve clinical therapy.” Journal of Immunology and Regenerative Medicine 16, 100059 (2022). When a tendon is injured, it triggers a local inflammatory response that involves immune cell infiltration and the expression of pro-inflammatory mediators. This inflammatory environment can modify tenocyte physiology, causing them to become activated and pro-inflammatory. Exposing the tenocytes to the pro-inflammatory cytokines TNF-α and IL-1β can mimic the effects of tendon injury. See Smith et al., “Tumour necrosis factor alpha, interleukin 1 beta and interferon gamma have detrimental effects on equine tenocytes that cannot be rescued by IL-1RA or mesenchymal stromal cell-derived factors.” Cell Tissue Res 391, 523-544 (2023).
(§2) Cell Culture System. Immortalized, healthy, commercially-sourced human tenocyte cells (donor, patellar tendon) were reconstituted, seeded in T-75 flasks coated with bovine collagen I, and were maintained in Tenocyte Growth Medium supplemented with Tenocyte Growth Supplement, FBS, and penicillin/streptomycin. Culture conditions were maintained at 37° C. in a humidified 5% CO2 atmosphere. Cells were seeded at a density of 100,000 cells/well in commercially-sourced 24-well plates that were pre-coated with rat tail tendon collagen I.
(§3) Treatment Protocol. This study was designed to follow the time-course of collagen production after cytokine exposure to mimic the effects of tendon injury. The time variable was cytokine exposure time (6 hours, 1 day, 3 days, and 5 days). Each of these cytokine exposure time periods was followed by a 24-hour drug treatment period. Inflammatory conditions were induced using a combination of IL-1β (1 nM; 17 ng/ml) and TNF-α (10 ng/ml). Two therapeutic interventions were evaluated. The treatment designated as “treatment A” was colchicine (2 nM). The treatment designated as “treatment B” was colchicine (2 nM) plus pyridoxine (100 μM).
(§4) Experimental Groups. The treatment groups were as follows: (1) exposed to inflammatory cytokines plus treatment A; (2) exposed to inflammatory cytokines plus treatment B; (3) exposed to inflammatory cytokines (negative control, no drug). Further reference control groups were as follows: (A) treatment A without inflammatory cytokine exposure (drug-only control); (B) treatment B without inflammatory cytokine exposure (drug-only control); (C) healthy control (no inflammatory cytokines, no drug treatment).
(§5) Sample Collection Times. Samples were collected at the following timepoints after initiation of cytokine exposure: • 6-hour samples: Collection at 30 hours (6 hr cytokine exposure+24 hr drug treatment) • 1-day samples: Collection at 48 hours (24 hr cytokine exposure+24 hr drug treatment) • 3-day samples: Collection at 96 hours (72 hr cytokine exposure+24 hr drug treatment) • 5-day samples: Collection at 144 hours (120 hr cytokine exposure+24 hr drug treatment, cell culture medium replenished on day-3)
(§6) Assays Used. Collagen I (human) content was measured using enzyme-linked immunosorbent assay (ELISA) in cell culture supernatants. TGF-β1 in cell culture supernatants were measured using the MSD multiplex platform. Other inflammatory cytokines in cell culture supernatants were measured using the MSD multiplex platform.

[1] = system: patient with bilateral upper extremity tendonitis (repetitive strain injury); experiment: Experimental clinical trial of oral colchicine in one patient with tendonitis; type: in vivo, human
Experimental: An experimental trial was conducted on a patient, who was a person with bilateral upper extremity tendonitis for 7 months duration. The symptoms at the wrist radiated down to their fingers and up to their elbow. They reported the severity of their symptoms as 5-7 on a 1-10 standard discomfort scale. The cause of their widespread tendonitis was repetitive strain injury.
The patient began treatment with 0.6 mg of colchicine by oral intake once daily. […] With continued daily dosing of colchicine for a total of two weeks duration, symptoms were nearly gone. They were free of symptoms while performing their activities of daily living. At the end of two weeks of treatment, the patient reported reduced severity of symptoms to a level of 2 on a standard 1-10 discomfort scale.
The experimental trial was further extended to observe the effect of discontinuing the colchicine after initially achieving therapeutic success. Upon discontinuing, their tendonitis symptoms gradually returned. After 7 days without treatment, they reported the severity of their symptoms had worsened to 5 on the standard scale. After another 14 days without treatment (21 days cumulative), their symptoms remained at level 5, and occasionally rising to level 6 with increased arm use activity.

IL-6 = experiment: In vitro tendinopathy model, IL-6 in tenocyte supernatant (MSD multiplex); type: cell-based, human
Experimental: as §1, §2, §3, §4, §5, §6

IL-33 = experiment: In vitro tendinopathy model, IL-33 in tenocyte supernatant (MSD multiplex); type: cell-based, human; set-up: IL-33, % of negative control / reduction of IL-33 levels compared to negative control: concentration or dose not given beside the values
Experimental: as §1, §2, §3, §4, §5, §6

TNF-α = experiment: In vitro tendinopathy model, TNF-α in tenocyte supernatant (MSD multiplex); type: cell-based, human; conditions: 6 hr cytokine exposure + 24 hr drug treatment
Experimental: as §1, §2, §3, §4, §5, §6

[2] = 6 hr cytokine exposure + 24 hr drug treatment
[3] = 1 day cytokine exposure + 24 hr drug treatment
[4] = 3 days cytokine exposure + 24 hr drug treatment
[5] = 5 days cytokine exposure + 24 hr drug treatment

COc1cc2c(c(OC)c1OC)-c1ccc(OC)c(=O)cc1[C@@H](NC(C)=O)CC2 [Treatment A, colchicine]
TGF-β1, % of negative control (TGF-β1; [2]): 127%
TGF-β1 level (TGF-β1; 6 hr cytokine exposure + 24 hr drug treatment, negative control 0.97 ng/ml): 1.23 ng/mL
TGF-β1, % of negative control (TGF-β1; [3]): 104%
TGF-β1 level (TGF-β1; 1 day cytokine exposure + 24 hr drug treatment, negative control 1.22 ng/ml): 1.28 ng/mL
TGF-β1, % of healthy baseline (TGF-β1; [4]): 112%
TGF-β1, % of negative control (TGF-β1; [4]): 114%
TGF-β1 level (TGF-β1; 3 days cytokine exposure + 24 hr drug treatment, negative control 1.70 ng/ml): 1.94 ng/mL
TGF-β1, % of negative control (TGF-β1; [5]): 108%
TGF-β1 level (TGF-β1; 5 days cytokine exposure + 24 hr drug treatment, negative control 1.22 ng/mL): 1.32 ng/mL
TGF-β1 level (TGF-β1; drug alone, without inflammatory cytokines, healthy control 1.73 ng/ml): 1.90 ng/mL
TGF-β1, % of healthy baseline (TGF-β1; drug-only control, without inflammatory cytokines): 110%
tendonitis symptoms ([1]; 0.6 mg oral once daily, by the second day of treatment): began to improve
severity of symptoms on standard 1-10 discomfort scale ([1]; 0.6 mg oral once daily, end of two weeks of treatment, before treatment 5-7): 2
tendonitis symptoms ([1]; 0.6 mg oral once daily, total of two weeks duration): nearly gone
severity of symptoms on standard 1-10 discomfort scale ([1]; 7 days without treatment after discontinuing colchicine): 5
severity of symptoms on standard 1-10 discomfort scale ([1]; 21 days cumulative without treatment after discontinuing colchicine): 5
IL-6, % of healthy level (IL-6; [2]): 873.4%
IL-6, % of negative control (IL-6; [2]): 185.1%
IL-6 level (IL-6; 6 hr cytokine exposure + 24 hr drug treatment, negative control 1614.8 pg/mL): 2989.5 pg/mL
IL-6, % of healthy level (IL-6; [3]): 617.8%
IL-6, % of negative control (IL-6; [3]): 122.5%
IL-6 level (IL-6; 1 day cytokine exposure + 24 hr drug treatment, negative control 1726.6 pg/mL): 2114.9 pg/mL
IL-6, % of healthy level (IL-6; [4]): 397.3%
IL-6, % of negative control (IL-6; [4]): 127.5%
IL-6 level (IL-6; 3 days cytokine exposure + 24 hr drug treatment, negative control 1067.0 pg/mL): 1360.1 pg/mL
IL-6, % of healthy level (IL-6; [5]): 207.0%
IL-6, % of negative control (IL-6; [5]): 101.7%
IL-6 level (IL-6; 5 days cytokine exposure + 24 hr drug treatment, negative control 696.6 pg/mL): 708.5 pg/mL
IL-6 level (IL-6; drug alone, without inflammatory cytokines, healthy control 342.3 pg/mL): 73.7 pg/mL
IL-33, % of healthy level (IL-33; [2]): 113.6%
IL-33, % of negative control (IL-33; [2]): 55.0%
IL-33 level (IL-33; 6 hr cytokine exposure + 24 hr drug treatment, negative control 18.0 pg/mL): 9.9 pg/mL
IL-33, % of healthy level (IL-33; [3]): 128.1%
IL-33, % of negative control (IL-33; [3]): 85.1%
IL-33 level (IL-33; 1 day cytokine exposure + 24 hr drug treatment, negative control 13.1 pg/mL): 11.2 pg/mL
IL-33, % of healthy level (IL-33; [4]): 87.1%
IL-33, % of negative control (IL-33; [4]): 70.8%
IL-33 level (IL-33; 3 days cytokine exposure + 24 hr drug treatment, negative control 10.7 pg/mL): 7.6 pg/mL
IL-33, % of healthy level (IL-33; [5]): 167.4%
IL-33, % of negative control (IL-33; [5]): 85.4%
IL-33 level (IL-33; 5 days cytokine exposure + 24 hr drug treatment, negative control 17.1 pg/ml): 14.6 pg/mL
reduction of IL-33 levels compared to negative control (IL-33; at 6 hours): 45%
IL-33 level (IL-33; drug alone, without inflammatory cytokines, healthy control 8.7 pg/mL): 3.4 pg/mL
TNF-α, % of healthy level (TNF-α): 926.9%
